Values joined by “and” are separate entries in the source; they are usually repeats but may differ in a detail not shown here. Equal entries are not always repeated. Where two headings read alike, the source gives them in different places.
Assays:
Type in all cases: in vivo, human
advanced solid tumours = assay: phase I antitumor activity (RECIST v1.1) and treatment duration; Reg 1: 3qw continuous; Reg 3: 3qw 2 weeks on/1 week off; design: DCR / ORR: unit not given here
Experimental: All patients provided written informed consent. […] Antitumor efficacy was assessed using computerised tomography (CT)/magnetic resonance imaging assessment at baseline and every 8 weeks until disease progression or the initiation of subsequent antineoplastic therapy or death, whichever occurred first. In addition, the criteria for determining confirmed partial response (PR) or complete response (CR) were required to be present for at least 4 weeks. Demographic and other baseline data and PK/PD parameters were summarised using descriptive statistics.[11] PK parameters were estimated using noncompartmental methods (Phoenix®, Pharsight, Mountain View, California, USA).

[1] = population PK model (2-compartment, nonlinear mixed-effect); settings: for Vd/F: human, plasma, oral
Experimental: A total of 1919 observations (924 plasma PK, 717 platelet, and 278 GDF-15 measurements) and 20 platelet transfusion events derived from 46 patients were included in the dataset (data cutoff, January 2016). […] S1. The equations for the respective models are provided in the Supplementary Material (Supplementary Data). Models were evaluated based on the change in the Akaike’s information criterion (AIC) value, the convergence of the SAEM algorithm, the precision of the parameter estimates (NLME derived % relative standard error [RSE%]) and decreases in IIV and residual variability. Diagnostic plots were used to evaluate model adequacy, including evaluation of observations versus population and individual predicted (IPRED), and the distributions of conditional weighted residuals (CWRES) or normalised prediction distribution error (NPDE) versus time/observations or over time plots (Supplementary Figs. S2–S4). The predictive performance of the final models was evaluated by simulating 500 datasets using parameter estimates (fixed and random effects) and plotting a visual predictive check (Supplementary Fig. S5). For serum GDF-15, serum concentration levels above the upper limit of quantification (>50,000 pg/mL) were handled as right-censored data.

GDF-15 = assay: serum GDF-15 in patients (ELISA); settings: fold change from baseline
Experimental: Serum growth differentiation factor-15 (GDF-15) was measured using the Quantikine ELISA kit (#DGD150, R&D Systems). Briefly, serum samples were diluted 1:4 and transferred to pre-coated plates. The assay was run with an 8-point standard curve, and absorbance was read at 450 nm. […] A coefficient of variation (CV%) < 20 between duplicates was considered acceptable.

## COc1cc2c(cc1OC(C)C)[C@H](c1ccc(Cl)cc1)N(c1ccc(N(C)C[C@H]3CC[C@H](N4CCN(C)C(=O)C4)CC3)cc1)C(=O)C2 [CGM097]
Advanced solid tumours; 10 mg Reg 1, N = 3
  BOR: CR: 0
  BOR: PD: 2 (66.7)
  BOR: PR: 0
  BOR: SD: 1 (33.3)
  BOR: Unknown: 0
  DCR: 1 (33.3)
  ORR: 0
Advanced solid tumours; 20 mg Reg 1, N = 4
  BOR: CR: 0
  BOR: PD: 2 (50.0)
  BOR: PR: 0
  BOR: SD: 1 (25.0)
  BOR: Unknown: 1 (25.0)
  DCR: 1 (25.0)
  ORR: 0
Advanced solid tumours; 40 mg Reg 1, N = 4
  BOR: CR: 0
  BOR: PD: 2 (50.0)
  BOR: PR: 0
  BOR: SD: 1 (25.0)
  BOR: Unknown: 1 (25.0)
  DCR: 1 (25.0)
  ORR: 0
Advanced solid tumours; 80 mg Reg 1, N = 4
  BOR: CR: 0
  BOR: PD: 3 (75.0)
  BOR: PR: 0
  BOR: SD: 1 (25.0)
  BOR: Unknown: 0
  DCR: 1 (25.0)
  ORR: 0
Advanced solid tumours; 150 mg Reg 1, N = 4
  BOR: CR: 0
  BOR: PD: 3 (75.0)
  BOR: PR: 0
  BOR: SD: 0
  BOR: Unknown: 1 (25.0)
  DCR: 0
  ORR: 0
Advanced solid tumours; 300 mg Reg 1, N = 7
  BOR: CR: 0
  BOR: PD: 3 (42.9)
  BOR: PR: 1 (14.3)
  BOR: SD: 2 (28.6)
  BOR: Unknown: 1 (14.3)
  DCR: 3 (42.9)
  ORR: 1 (14.3)
Advanced solid tumours; 300 mg Reg 3, N = 8
  BOR: CR: 0
  BOR: PD: 3 (37.5)
  BOR: PR: 0
  BOR: SD: 5 (62.5)
  BOR: Unknown: 0
  DCR: 5 (62.5)
  ORR: 0
Advanced solid tumours; 400 mg Reg 1, N = 5
  BOR: CR: 0
  BOR: PD: 1 (20.0)
  BOR: PR: 0
  BOR: SD: 4 (80.0)
  BOR: Unknown: 0
  DCR: 4 (80.0)
  ORR: 0
Advanced solid tumours; 500 mg Reg 3, N = 6
  BOR: CR: 0
  BOR: PD: 3 (50.0)
  BOR: PR: 0
  BOR: SD: 3 (50.0)
  BOR: Unknown: 0
  DCR: 3 (50.0)
  ORR: 0
Advanced solid tumours; 700 mg Reg 3, N = 6
  BOR: CR: 0
  BOR: PD: 3 (50.0)
  BOR: PR: 0
  BOR: SD: 1 (16.7)
  BOR: Unknown: 2 (33.3)
  DCR: 1 (16.7)
  ORR: 0
Advanced solid tumours; 20/51 patients
  disease control rate: 39%
Advanced solid tumours; All patients, N = 51
  BOR: PD: 25 (49.0)
  BOR: Unknown: 6 (11.8)
  ORR: 1 (2.0)
Advanced solid tumours; alternative dosing regimen
  patients with SD as best response: nine
Advanced solid tumours; continuous dosing regimen
  patients with SD as best response: ten
Advanced solid tumours; of 51 patients
  patients with clinical benefit: 20 patients
Advanced solid tumours; one malignant melanoma patient, 300 mg 3qw continuous
  duration of PR, response ongoing at cutoff: ≥ 118 weeks
[1]; population estimate, read-out: V1/F, Apparent central volume of distribution
  Vd/F: 92.6 L
[1]; read-out: Vc/F, apparent central volume of distribution, population value
  Vd/F: 67 L
[1]; population estimate
  CL/F, Apparent clearance: 1.62 L/h
  Ka, First-order absorption rate constant: 2.05 h⁻¹
  Tlag, Absorption lag-time: 0.39 h and 0.383 h
GDF-15
  serum GDF-15 (p53 pathway activation): induction
